# Measurements: PMC12720113, “The binding mechanism of a novel ferrous ion chelating peptide from chicken blood hemoglobin and the bioavailability of the chelate” (Food Chemistry: X, 2025)
# Where two headings read alike, the source gives them in different places. Marks after values point to notes of the source that are not given here. Where no end group is shown, it is not given here.
# Key:
# [1] = Intermolecular force analysis with dissociation reagents; type: physicochemical; settings: 2 mg/mL, read at 500 nm
# Procedure: Referring to the study by [Sun et al. (2020)], the intermolecular forces of […]-Fe were analyzed using different dissociation reagents. The absorbance values at 500 nm of the sample solution (2 mg/mL) were measured at the initial moment of the reaction (0 min) and after 30 min, respectively. At 30 min of the reaction, 1 mol/L NaCl, 30 mmol/L DTT (dithiothreitol), 0.5 % SDS, and 6 mol/L urea were added sequentially, followed immediately by absorbance detection using an enzyme meter.
# [2] = Temperature and pH stability test (iron retention); type: physicochemical; settings: 1 mg/mL aqueous solution, 2 h
# Procedure: The temperature stability of […]-Fe was determined using the method described by [Qu et al. (2022)]. The aqueous solution of […]-Fe (1 mg/mL) was incubated for 2 h at a temperature gradient of 30–80 °C and a pH gradient of 2–9. […]-Fe was separated using the alcohol precipitation method to calculate the iron retention rate:(2) Iron retention%=A−A0/A×100% where A represents the total iron content added to the reaction (mmol/mL), A0 represents the iron ion content in the supernatant after the reaction (mmol/mL).
# [3] = Effect of different dietary components on iron retention; type: in vitro ADME
# Procedure: Then, the pH was adjusted to 2.0, and oxalic acid solution (1 %, w/v) was added. Gastrointestinal digestion simulation was then performed under the conditions described in 2.9.2. After the reaction was complete, the enzyme was inactivated, and the supernatant was collected after centrifugation. To assess the effects of phytate and dietary fiber on iron absorption, 1 % phytate and 8 % dietary fiber were added to the sample solution, and the digestion and measurement steps were repeated. By comparing changes in iron retention under different treatment conditions, the impacts of phytate and dietary fiber on the stability of […] chelate were analyzed. For calculations of iron retention rates, refer to Section 2.9.1.
# [4] = Zeta potential; type: physicochemical; settings: 1 mg/mL solution, 25 °C, Zetasizer Nano ZSE
# Procedure: (§1) An appropriate amount of […] and […]-Fe solutions with a concentration of 1 mg/mL were added to U-shaped cuvettes and equilibrated at a constant temperature of 25 °C for 5 s. The Zeta potential values and particle size distributions of the samples were determined using a Zetasizer Nano ZSE analyzer to evaluate their surface charge characteristics and solution stability.
# [5] = Particle size distribution; type: physicochemical; settings: 1 mg/mL solution, 25 °C, Zetasizer Nano ZSE
# Procedure: as §1
# [6] = Thermogravimetry (TG); type: physicochemical; settings: TAEDKKLIQ from 249 °C to 426 °C; TAEDKKLIQ-Fe from 638 °C to 686 °C; 10 °C/min
# Procedure: 5 mg of […] and […]-Fe lyophilized powders were weighed, respectively, and the thermal stability analysis was carried out by […]. The sample chamber temperature range is set from 50 to 800 °C, with a heating rate of 10 °C/min. The thermogravimetric change curves of the samples were recorded synchronously.
# [7] = In vitro digestive simulation (iron retention); type: in vitro ADME
# Procedure: In vitro simulated digestion of […] according to [Ding et al. (2025)]. […] To simulate the digestive processes of the stomach and intestines separately, the pH values of the three iron supplements were adjusted to 2.0 and 7.6, respectively, and pepsin and trypsin (3 %, w/w) were added separately. The mixture was incubated in a water bath at 37 °C for 2 h. To simulate the digestive processes of the gastrointestinal tract, the three iron supplements were subjected to simulated gastric digestion followed by intestinal digestion. The retention rates of iron after gastric digestion, intestinal digestion, and simulated gastrointestinal digestion were determined according to the method described in Section 2.9.1.
# [8] = system: Caco-2 cells; experiment: Caco-2 cell viability assay (MTT); type: cell-based; settings: 24 h, 490 nm, means ± SEM
# Procedure: Caco-2 cell viability assay was conducted on […]-Fe according to the method of [Wu et al. (2019)]. And lactoferrin was chosen as an experimental control. When the cell fusion rate was close to 80 %, the cells were dissociated and passaged using the trypsin-EDTA mixed digest. Cultivate the 23rd generation of cells in the logarithmic growth phase at 37 °C and 5 % CO₂ for 24 h. Then, a gradient concentration of […]-Fe and Ac-[…]-Fe was added to the wells of the experimental group, and all the samples were incubated for 24 h. After incubation, 20 μL of MTT reagent was added to each well. After 2 h of reaction, 150 μL of DMSO was added and agitated for 10 min. The absorbance values at 490 nm were measured to reflect cell activity levels. Cell relative activity (%) was calculated:(3) Relative cell viability%=As−Ab/Ac−Ab×100 where: As represents the absorbance value of the sample treatment, Ab represents the absorbance value without cells, and Ac represents the absorbance value without sample treatment.
# [9] = Iron chelating rate (alcohol precipitation method); type: binding; settings: synthesized peptide 1 mg/mL, pH 5 sodium acetate buffer, 1 mL + 2 mL FeCl2•4H2O 1.5 mM, 37 °C, 30 min, means ± SEM, three independent experiments
# Procedure: The detection of iron chelation activity was performed using the method described by [Lin et al. (2021)]. The peptide solution was prepared using sodium acetate buffer. Subsequently, 1 mL of the peptide solution (1 mg/mL, pH 5) was mixed with 2 mL of FeCl₂•4H₂O (1.5 mM) and reacted at 37 °C for 30 min. Then, the alcohol precipitation method was used to determine the chelation rate of ferrous ions:(1) Iron chelating rate%=A−A1/A×100% where: A is the total amount of ions added; A1 is the content of free ions in the supernatant.
# The peptides identified by mass spectrometry were synthesized by China Qiangyao Co., Ltd. (Shanghai, China) using Fmoc-protected amino acid solid-phase peptide synthesis, with the purity of these peptides evaluated at over 98 %. The ferrous ion chelating activity was verified using the method described in Section 2.3.
compound,measurement,setting,value
TAEDKKLIQ-Fe,Decrease in transmittance after DTT,"[1]; 30 mmol/L DTT added at 30 min, disulfide bonds",0.138
same,Decrease in transmittance after SDS,"[1]; 0.5 % SDS added at 30 min, hydrophobic forces",0.103
same,Decrease in transmittance after NaCl,"[1]; 1 mol/L NaCl added at 30 min, electrostatic interactions",0.20
same,Decrease in transmittance after urea,"[1]; 6 mol/L urea added at 30 min, hydrogen bonding",0.09
same,Ferrous ion retention at 30 °C to 40 °C,[2]; alcohol precipitation,no significant loss observed
same,"Iron retention, pH 6-9",[2]; pH range 6-9,above 88%
same,Overall retention of ferrous ions as the temperature continued to increase,"[2]; temperature gradient 30-80 °C, above 40 °C",above 40%
same,Retention of soluble iron with phytic acid,[3],76.73%
same,"Soluble iron content in the presence of phytic acid, oxalic acid or dietary fiber alone (rank)",[3],highest level
same,Zeta potential,[4],41.8 mV
same,"Particle size, peak of the distribution",[5],295 nm
same,"Weight loss, second stage (TG)",[6],12.32%
same,Iron retention in simulated digestion compared with the control iron supplements,[7],superior to that of ferrous sulfate and ferrous gluconate
same,Relative vitality of cells (%),"[8]; Caco-2, 0.125 mg/mL",98.06 ± 1.22%
same,Relative vitality of cells (%),"[8]; Caco-2, 0.25 mg/mL",97.72 ± 1.67%
same,Relative vitality of cells (%),"[8]; Caco-2, 0.5 mg/mL",97.53 ± 0.89%
same,Relative vitality of cells (%),"[8]; Caco-2, 1 mg/mL",97.21 ± 1.45%
"LSDLHAHKLR [Hemoglobin subunit alpha-A(84th–93th) peptide, synthesized]",Chelation rate (%),[9],87.07 ± 0.12^b %
TAEDKKLIQ,Ferrous retention after transfer to simulated intestinal fluid digestion,"[7]; pH 7.6, trypsin 3 % w/w, 37 °C, 2 h, after gastric phase",significant increase in ferrous retention
"O=C([O-])[C@H](O)[C@@H](O)[C@H](O)[C@H](O)CO.O=C([O-])[C@H](O)[C@@H](O)[C@H](O)[C@H](O)CO.[Fe+2] [ferrous gluconate, reference compound]","Soluble iron content in the presence of phytic acid, oxalic acid or dietary fiber alone (rank)","[3]; 1 % oxalic acid, 1 % phytate or 8 % dietary fiber, then simulated gastrointestinal digestion, 37 °C",lower
"QAWEKAASH [Hemoglobin subunit alpha-D(12th–20th) peptide, synthesized]",Chelation rate (%),[9],81.38 ± 0.27^c %
